ChEMBL document CHEMBL5252556, “Fuligopyrones from the Fruiting Bodies of Myxomycete Fuligo septica Offer Short-Term Protection from Abiotic Stress Induced by UV Radiation” (J Nat Prod, 2023)

Tests used:
[1] = system: Bacillus subtilis; assay: Antibacterial activity against Bacillus subtilis ATCC 6633 measured after 24 hrs; assay type: functional
[2] = system: Staphylococcus aureus; assay: Antibacterial activity against Staphylococcus aureus ATCC 25923 measured after 24 hrs; assay type: functional
[3] = system: Candida albicans; assay: Antifungal activity against Candida albicans ATCC 10231 measured after 24 hrs; assay type: functional
[4] = system: Saccharomyces cerevisiae; assay: Antifungal activity against Saccharomyces cerevisiae ATCC 9763 measured after 24 hrs; assay type: functional
[5] = Cytotoxicity against mouse NS-1 cells measured after 72 hrs; assay type: toxicity, cell-based
[6] = Cytotoxicity against […] NFF measured after 72 hrs; assay type: toxicity, cell-based; details: NFF cells
[7] = system: Tritrichomonas foetus; assay: Anti-protozoal Tritrichomonas foetus KV-1 measured after 24 hrs; assay type: functional
[8] = system: Eragrostis tef; assay: Herbicidal activity against Eragrostis tef seed measured after 24 hrs; details: in Eragrostis tef

| Structure (SMILES) | MIC [1] [µg/mL] | MIC [2] [µg/mL] | MIC [3] [µg/mL] | MIC [4] [µg/mL] | IC50 at 72 h [5] [µM] | IC50 at 72 h [6] [µM] | LD99 [7] [µg/mL] | MIC [8] [µg/mL] |
| --- | --- | --- | --- | --- | --- | --- | --- | --- |
| O=C(/C=C/C=C/c1ccc(O)cc1)NCCc1cc(O)c(Cl)c(=O)o1 | > 100 | > 100 | > 200 | > 200 | > 200 | > 200 | >100 | > 100 |
| O=C(/C=C/C=C/c1ccc(O)cc1)NCCc1cc(O)cc(=O)o1 | > 100 | > 100 | > 200 | > 200 | > 200 | > 200 | >100 | > 100 |
